Test results: patent US20250302815A1, “PROTEIN TYROSINE PHOSPHATASE TARGETING LIGANDS” (CALICO LIFE SCIENCES LLC, priority 2021, published 2025)

Columns and labels:
MC-38 tumor = test: syngeneic mouse tumor model, MC-38 tumor growth inhibition; type: in vivo; conditions: MC-38 tumor-bearing mice, mean tumor volume of 10 mice
Source text: Each point on the curve represents the mean of 10 tumor volume of 10 mice. Error bars depict the standard error of the mean. **=p<0.01.

[1] = tested on: MC-38 murine colon adenocarcinoma tumors; test: In vivo efficacy in MC38 syngeneic tumor model; conditions: MC-38 tumor-bearing mice
Procedure: All experiments were conducted in compliance with AbbVie's Institutional Animal Care and Use Committee and the National Institutes of Health Guide for Care and Use of Laboratory Animals guidelines in a facility accredited by the Association for the Assessment and Accreditation of Laboratory Animal Care. C57Bl/6 female mice were obtained from Charles River (Wilmington, MA). The mice were group-housed 10 per cage. Food and water were available ad libitum. Animals were acclimated to the animal facilities for a period of at least one week prior to commencement of experiments. Animals were tested in the light phase of a 12-hour light: 12-hour dark schedule (lights on 0600 hours).
Cells were grown to passage 3 in vitro. A total of 1×10^5 viable MC-38 cells were inoculated subcutaneously into the right flank of female C57Bl/6 mice (7-12 weeks old) on Day 0. The injection volume was 0.1 mL and was composed of a 1:1 mixture of S-MEM and Matrigel® (Corning, NY, USA). […] The mean tumor volume (TV) at size match was approximately 139±45 mm^3. Following size match, treatments were initiated on the same day. Dosing of mice with Compound 187b (Example 187b) was conducted intravenously, weekly (QW) for 3 weeks. Mice were dosed (10 mg/kg/dose) with either Compound 187b or vehicle controls (n=10 mice/group). Compound 187b was formulated in 5% DMSO+10% PEG400+85% (35% HP-β-CD in water) and was dosed at 5 mL/kg. Anti-PD-1 and isotype antibodies were dosed at 5 mg/kg, […] at 4 day intervals (Q4Dx3). Antibodies were formulated in PBS and dosed at 10 mL/kg. Tumor volume was calculated three times weekly. Measurements of the length (L) and width (W) of the tumor were taken via electronic caliper and the volume was calculated according to the following equation: V=L×W^2/2 using Study Director Version 3.1.399.22 (Study log Systems, Inc, CA, USA). Mice were euthanized when tumor volume was […] or skin ulcerations occurred.

[2] = target: T1, PTPN2 (HiBIT-PTPN2 in 293T.109 cells) (Homo sapiens, UniProt P17706); test: HiBiT Degradation 293T.109 PTPN2 (Nano-Glo HiBiT Lytic Assay); type: cell-based; conditions: 24.0 hours
T1 construct: expressed in transfected cells; host or cells: 293T.109 (293T WT from ATCC)
T1 sequence (P17706 1-415): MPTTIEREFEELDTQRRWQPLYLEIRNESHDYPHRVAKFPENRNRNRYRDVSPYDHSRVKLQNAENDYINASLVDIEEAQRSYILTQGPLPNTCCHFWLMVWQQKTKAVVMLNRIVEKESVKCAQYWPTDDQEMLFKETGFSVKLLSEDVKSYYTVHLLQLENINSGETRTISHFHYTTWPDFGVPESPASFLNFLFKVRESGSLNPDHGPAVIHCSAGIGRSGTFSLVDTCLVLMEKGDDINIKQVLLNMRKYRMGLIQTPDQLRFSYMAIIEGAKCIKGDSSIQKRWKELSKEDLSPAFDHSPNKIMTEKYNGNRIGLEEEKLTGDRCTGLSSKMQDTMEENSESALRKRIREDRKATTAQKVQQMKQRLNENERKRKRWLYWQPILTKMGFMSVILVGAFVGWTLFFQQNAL
Procedure, shortened: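 293T.109 cells with ectopic N-terminal HiBiT-tagged PTPN2 (5000/well) exposed to compounds for 24 h at 37 °C, 5% CO2; 11-point half-log titration from 10 μM top, duplicates. Remaining HiBiT-PTPN2 read as luminescence with Nano-Glo HiBiT lytic reagent, normalised to untreated cells (0%) and reagent-free wells.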

PTPN2 (B16F10.4 cells) = target: T2, PTPN2 (B16F10.4 cells) (Mus musculus, UniProt Q06180); test: HiBiT Degradation B16F10.4 PTPN2; type: cell-based; conditions: 24.0 hours
T2 construct: HiBiT; host or cells: B16F10.4
T2 sequence (Q06180 1-406): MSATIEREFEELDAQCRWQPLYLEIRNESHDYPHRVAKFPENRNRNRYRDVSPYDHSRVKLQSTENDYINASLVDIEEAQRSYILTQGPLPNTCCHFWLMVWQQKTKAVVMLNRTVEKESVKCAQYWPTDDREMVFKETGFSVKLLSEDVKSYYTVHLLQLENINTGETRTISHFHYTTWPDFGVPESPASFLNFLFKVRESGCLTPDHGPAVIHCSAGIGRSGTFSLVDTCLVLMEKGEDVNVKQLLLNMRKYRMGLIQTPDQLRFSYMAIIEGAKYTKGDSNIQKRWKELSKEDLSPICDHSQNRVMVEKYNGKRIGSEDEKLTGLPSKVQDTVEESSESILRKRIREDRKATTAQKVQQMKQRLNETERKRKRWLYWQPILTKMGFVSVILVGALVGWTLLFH

[3] = combination of anti-PD-1 antibody (5 mg/kg) with Compound 187b (10 mg/kg i.v. QWx3)
[4] = monotherapy, Compound 187b 10 mg/kg intravenously QW for 3 weeks, anti-PD-1 5 mg/kg intraperitoneal every 4 days

CC1(C)C[C@@H](Nc2cccc(-c3sc(C(=O)O)c(OCC(=O)O)c3Cl)c2)CCN1S(=O)(=O)Cc1cccc(NC(=O)N2CCC(c3ccc4c5c(cccc35)C(=O)N4[C@H]3CCC(=O)NC3=O)CC2)c1 (single isomer, unassigned) [Example 187b]
anticancer and tumor growth inhibition activity in vivo (MC-38 tumor; in combination with anti-PD-1 therapy (Q4Dx2)): tumor growth inhibition
anticancer and tumor growth inhibition activity in vivo (MC-38 tumor; monotherapy, QWx3): tumor growth inhibition
tolerability ([1]; 10 mg/kg intravenously QW for 3 weeks): well tolerated
TGIMax (maximal tumor growth inhibition) [1, 3]: 98%
mice achieving cures [1, 3]: 90%
TGIMax (maximal tumor growth inhibition) [1, 4]: 75%
mice achieving complete cures [1, 4]: 10%
tumor response ([1]; within 7-10 days of monotherapy treatment): apparent tumor stasis and shrinkage
DC50 [2]: < 50 nM
DC50 (PTPN2 (B16F10.4 cells)): < 50 nM
